This passage reports Kb results from ChEMBL document CHEMBL1143231, “Specific fluorescent detection of fibrillar alpha-synuclein using mono- and trimethine cyanine dyes” (Bioorg Med Chem, 2008).

For test [1], the species on record is Homo sapiens. Briefly: Binding affinity to human beta amyloid protein 1-40 from Alzheimers disease patient.
The species named for test [2] is Homo sapiens. Kind of test: Binding affinity to human beta amyloid protein 1-28 from Alzheimers disease patient.

Molecules are shown by their SMILES.

As for `Cc1ccc2c(c1)sc(-c1ccc(N(C)C)cc1)[n+]2C`, the Kb was 0.5 10^6/M in the test filed under Homo sapiens [1] and 1.85 10^6/M in the test filed under Homo sapiens [2].
